# Results from PMC1257591, “In Vitro Inhibition of Human Hepatic and cDNA-Expressed Sulfotransferase Activity with 3-Hydroxybenzo[a]pyrene by Polychlorobiphenylols” (Environmental Health Perspectives, 2005).
# Where two headings read alike, the source gives them in different places.
# What was measured:
# Assay type in all cases: biochemical
# SULT1A1*1 = target: T1, SULT1A1*1 (Homo sapiens, UniProt P50225); assay: Inhibition of 3-OH-BaP sulfotransferase activity by OH-PCBs with cDNA-expressed SULT1A1*1; conditions: for IC50: mean of duplicates
# T1 construct: made in house; host or cells: Escherichia coli
# Text: (§1) The expression of human SULT1A1*1, SULT1A3, SULT1B1, and SULT1E1 in Escherichia coli has been described previously ([Dajani et al. 1998]; [Wang et al. 1998]). We grew E. coli cells containing the respective sulfotransferase genes as described previously ([Falany et al. 1990], [1994]), and prepared 100,000g supernatant fractions for use in inhibition studies and for partial purification of the SULT enzymes. We purchased expressed SULT1A1*2 cytosolic extract from PanVera (Madison, WI) and used it as supplied.
# (§2) We determined SULT activity with 3-OH-BaP as substrate by a fluorimetric assay of BaP-3-SO4 product formation, as described previously ([Wang et al. 2004]). […] Duplicate tubes were prepared for each incubation condition. We examined the kinetics of sulfonation in three liver cytosol fractions by systematically varying the concentration of 3-OH-BaP or PAPS. When the variable substrate was 3-OH-BaP, we used 12 concentrations in the range from 0.035 to 2.00 μM, and the concentration of PAPS was kept constant at 10 μM. When we varied PAPS, we used 7 concentrations from 0.157 to 10.0 μM and kept the concentration of 3-OH-BaP constant at 0.100 μM.
# (§3) For each OH-PCB, we examined the concentration dependence of inhibition with three liver cytosol fractions, as well as with cytosol fractions from the E. coli expressing SULT1A1*1, SULT1A3, SULT1B1, and SULT1E1, and the purchased Sf-9 cytosol fraction (PanVera, Madison, WI) containing SULT1A1*2. For studies with HL cytosol, SULT1A1*1, and SULT1E1, we examined two concentrations of 3-OH-BaP, 0.1 μM and 1.0 μM.
# (§4) We calculated the effects of OH-PCBs on 3-OH-BaP SULT activity as percentage inhibition compared with the controls without an inhibitor. We obtained IC50 values by fitting log OH-PCB concentration and percent control activity to a sigmoidal curve. We examined the relationships between IC50 and physicochemical properties of the OH-PCBs by linear correlation analysis. We calculated the inhibitory constant (Ki) from the kinetic studies with 4′-OH-CB112 by means of Dixon plots and plots of Km/Vmax against inhibitor concentration ([Cornish-Bowden 1995]).
# SULT1A1*2 [1] = target: T2, SULT1A1*2 (Homo sapiens, UniProt P50225, R213H); assay: Inhibition of 3-OH-BaP sulfotransferase activity by OH-PCBs with expressed SULT1A1*2
# T2 construct: purchased PanVera (Madison, WI); host or cells: Sf-9
# T2 sequence (P50225 whole entry R213H): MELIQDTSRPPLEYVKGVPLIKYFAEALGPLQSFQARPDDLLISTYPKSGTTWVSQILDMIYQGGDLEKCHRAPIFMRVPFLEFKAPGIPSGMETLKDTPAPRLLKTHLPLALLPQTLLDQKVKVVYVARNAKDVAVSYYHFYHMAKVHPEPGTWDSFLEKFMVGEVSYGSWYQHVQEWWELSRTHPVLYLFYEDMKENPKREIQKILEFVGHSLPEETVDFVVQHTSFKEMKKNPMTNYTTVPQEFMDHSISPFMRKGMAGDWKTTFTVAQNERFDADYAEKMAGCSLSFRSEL
# Text: as §1, §2, §3, §4
# SULT1E1 = target: T3, SULT1E1 (Homo sapiens, UniProt P49888); assay: Inhibition of 3-OH-BaP sulfotransferase activity by OH-PCBs with cDNA-expressed SULT1E1; conditions: for IC50: mean of duplicates
# T3 construct: made in house; host or cells: Escherichia coli
# T3 sequence (P49888 1-294): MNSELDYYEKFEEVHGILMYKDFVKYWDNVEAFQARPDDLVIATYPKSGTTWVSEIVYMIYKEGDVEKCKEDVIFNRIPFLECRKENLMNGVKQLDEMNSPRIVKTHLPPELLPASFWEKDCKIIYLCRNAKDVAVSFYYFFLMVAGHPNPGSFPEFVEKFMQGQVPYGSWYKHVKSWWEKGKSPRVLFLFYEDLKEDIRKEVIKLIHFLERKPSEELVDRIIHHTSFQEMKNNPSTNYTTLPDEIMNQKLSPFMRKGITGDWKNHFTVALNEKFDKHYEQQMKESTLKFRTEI
# Text: as §1, §2, §3, §4
# SULT1B1 = target: T4, SULT1B1 (Homo sapiens, UniProt O43704); assay: Inhibition of 3-OH-BaP sulfotransferase activity by OH-PCBs with cDNA-expressed SULT1B1; conditions: for IC50: mean of duplicates
# T4 construct: made in house; host or cells: Escherichia coli
# T4 sequence (O43704 whole entry): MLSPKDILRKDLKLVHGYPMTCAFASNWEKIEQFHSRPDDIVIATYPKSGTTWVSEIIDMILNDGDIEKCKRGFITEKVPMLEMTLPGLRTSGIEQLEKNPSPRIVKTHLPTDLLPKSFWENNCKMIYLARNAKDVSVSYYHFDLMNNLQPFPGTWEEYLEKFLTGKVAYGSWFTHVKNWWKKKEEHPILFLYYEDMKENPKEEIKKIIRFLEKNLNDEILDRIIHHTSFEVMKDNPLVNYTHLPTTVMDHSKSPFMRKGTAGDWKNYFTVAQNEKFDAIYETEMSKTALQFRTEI
# Text: as §1, §2, §3, §4
# SULT1A3 = target: T5, SULT1A3 (Homo sapiens, UniProt P0DMM9); assay: Inhibition of 3-OH-BaP sulfotransferase activity by 50 μM OH-PCBs with cDNA-expressed SULT1A3; conditions: for inhibition at 50 µM: read-out: inhibition of 3-OH-BaP sulfonation by SULT1A3
# T5 construct: made in house; host or cells: Escherichia coli
# T5 sequence (P0DMM9 whole entry): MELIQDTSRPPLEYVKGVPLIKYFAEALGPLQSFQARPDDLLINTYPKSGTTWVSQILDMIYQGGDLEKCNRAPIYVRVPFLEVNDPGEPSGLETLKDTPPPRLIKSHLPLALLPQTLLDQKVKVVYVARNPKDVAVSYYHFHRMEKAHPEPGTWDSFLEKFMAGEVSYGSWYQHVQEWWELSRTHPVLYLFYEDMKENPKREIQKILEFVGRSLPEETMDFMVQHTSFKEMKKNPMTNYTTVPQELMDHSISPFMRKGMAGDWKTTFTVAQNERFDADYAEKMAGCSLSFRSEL
# Text: as §1, §2, §3, §4
# [2] = target: HL cytosol sulfotransferase (Homo sapiens, UniProt P50225); assay: Kinetics of 3-OH-BaP sulfonation by human liver cytosol (fluorimetric assay of BaP-3-SO4 formation); conditions: HL cytosol, 0.1 μM 3-OH-BaP, varying PAPS, mean ± SD n = 3
# HL cytosol sulfotransferase, sequence (P50225 whole entry): as the sequence (P50225 whole entry R213H) above, with H213R counted along it
# Experimental: F.P. Guengerich (Vanderbilt University) kindly donated the samples of human liver, which were procured from organ donors ([Guengerich 1995]). We prepared liver cytosolic fractions from four livers by standard methods and stored aliquots at −80°C until use ([Wang et al. 2004]). We used three or four of these cytosol fractions in each experiment.
# as §2
# (§5) We calculated the enzyme kinetic parameters from studies with variable concentrations of 3-OH-BaP using nonlinear regression analysis and GraphPad 4.0 software (GraphPad Software, San Diego, CA). We selected the built-in Michaelis-Menten equation for most analyses. Where we found evidence of 3-OH-BaP substrate inhibition, we fit the data into an equation derived from a two-substrate model ([Zhang et al. 1998]): […]
# (§6) This equation denoted the constant for binding of the first substrate (S) molecule as Km and the second substrate molecule as Ki. V1 is the maximum rate for the noninhibitory substrate concentration range, and V2 is the minimum rate in the inhibitory substrate concentration range
# SULT1A1*2 [3] = target: T2, SULT1A1*2; assay: Kinetics of 3-OH-BaP sulfonation by expressed SULT1A1*2; conditions: expressed SULT1A1*2, 0.1 μM 3-OH-BaP, varying PAPS
# Text: as §1, §2
# We determined the kinetic parameters for 3-OH-BaP sulfonation by partially purified preparations of the cDNA-expressed SULT isozymes under incubation conditions similar to those used for liver cytosol. For SULT1A1*1 and -1A1*2, we used seven substrate concentrations in the range from 5 to 100 nM; for SULT1E1 we used […] 3-OH-BaP concentrations from 15.6 to 1,000 nM; and for SULT1A3 and 1B1 we used seven concentrations of 3-OH-BaP from 0.25 to 5.0 μM.
# as §5, §6
# [4] = target: HL cytosol 3-OH-BaP sulfotransferase (Homo sapiens, UniProt P50225); assay: Kinetics of 3-OH-BaP sulfotransferase inhibition by 4′-OH-CB112 in HL cytosol
# HL cytosol 3-OH-BaP sulfotransferase, sequence (P50225 whole entry): as the sequence (P50225 whole entry R213H) above, with H213R counted along it
# Experimental: To study the type of inhibition produced by OH-PCBs, we used 4′-OH-CB112 (B5) as a model inhibitor. We prepared four sets of assay tubes containing HL cytosol and varying amounts of 3-OH-BaP from 35 to 150 nM: one set (control) contained no 4′-OH-CB112; the other sets contained 0.25 μM, 0.5 μM, or 1.0 μM 4′-OH-CB112.
# as §4
# [5] = 0.1 μM 3-OH-BaP, read-out: IC50 SULT1A1*1
# [6] = 1.0 μM 3-OH-BaP, read-out: IC50 SULT1A1*1
# [7] = 0.1 μM 3-OH-BaP, mean of duplicates, read-out: IC50 SULT1A1*2
# [8] = 0.1 μM 3-OH-BaP, read-out: IC50 SULT1E1
# [9] = 1.0 μM 3-OH-BaP, read-out: IC50 SULT1E1
# [10] = 1.0 μM 3-OH-BaP, read-out: IC50 SULT1B1
# [11] = IC50 SULT1A1*1, 0.1 μM 3-OH-BaP
# [12] = IC50 SULT1A1*1, 1.0 μM 3-OH-BaP
Structure (SMILES),IC50 (SULT1A1*1; [5]) [µM],IC50 (SULT1A1*1; [6]) [µM],IC50 (SULT1A1*2 [1]; [7]) [µM],IC50 (SULT1E1; [8]) [µM],IC50 (SULT1E1; [9]) [µM],IC50 (SULT1B1; [10]) [µM],"inhibition at 50 µM (SULT1A3; 50 μM OH-PCB, 1.0 μM 3-OH-BaP) [%]","inhibition of 3-OH-BaP sulfonation by SULT1A3 (SULT1A3; 50 μM OH-PCB, 1.0 μM 3-OH-BaP)",further results
"Oc1c(Cl)cc(-c2cc(Cl)c(Cl)c(Cl)c2Cl)cc1Cl [Compound C4, 4′-OH-CB159]",2.16,34.1,1.67,1.3,3.55,> 100,2 to 20,–,–
"Oc1ccc(-c2cc(Cl)cc(Cl)c2)cc1Cl [Compound B2, 4′-OH-CB36]",1.31,28,0.94,0.45,1.89,37,2 to 20,–,–
"Oc1c(Cl)cc(-c2ccc(Cl)c(Cl)c2)cc1Cl [Compound C1, 4′-OH-CB79]",–,–,–,–,–,–,–,–,"IC50 (SULT1A1*1; [11]): 6.65 µM; IC50 (SULT1A1*1; [12]): 59.8 µM; IC50 (SULT1A1*2 [1]): 4.57 µM; IC50 (SULT1E1; IC50 SULT1E1, 0.1 μM 3-OH-BaP): 0.5 µM; IC50 (SULT1E1; IC50 SULT1E1, 1.0 μM 3-OH-BaP): 1.32 µM; IC50 (SULT1B1; IC50 SULT1B1, 1.0 μM 3-OH-BaP): 39.9 µM; inhibition at 50 µM (SULT1A3): 2 to 20%"
"Oc1ccc(Cl)cc1-c1ccc(Cl)c(Cl)c1 [Compound A1, 6′-OH-CB35]",> 100,> 100,> 100,~100,> 100,4.72,–,did not inhibit,"inhibitory potency in words, SULT1A1*1 (SULT1A1*1; both substrate concentrations (0.1 and 1.0 μM 3-OH-BaP)): poor inhibitor; inhibitory potency in words, SULT1E1 (SULT1E1; either substrate concentration (0.1 and 1.0 μM 3-OH-BaP)): poor inhibitor; inhibitory potency in words, SULT1B1 (SULT1B1; 1.0 μM 3-OH-BaP): fairly potent inhibitor"
"Nc1ncnc2c1ncn2[C@@H]1O[C@H](COP(=O)(O)OS(=O)(=O)O)[C@@H](OP(=O)(O)O)[C@H]1O [PAPS, 3′-phosphoadenosine 5′-phosphosulfate]",–,–,–,–,–,–,–,–,Vmax (varying PAPS) [2]: 48 ± 2 pmol/min/mg protein; Km ([2]; read-out: apparent Km for PAPS): 0.56 ± 0.09 µM; Vmax (varying PAPS) (SULT1A1*2 [3]): 684 pmol/min/mg protein; Km (SULT1A1*2 [3]; read-out: apparent Km for PAPS): 0.32 µM
"Oc1c(Cl)cc(-c2cc(Cl)ccc2Cl)cc1Cl [Compound C6, 4′-OH-CB72]",2.21,33.8,2.03,0.57,2.28,> 100,–,did not inhibit,–
"Oc1ccc(-c2c(Cl)cc(Cl)cc2Cl)cc1Cl [Compound B3, 4′-OH-CB69]",1.16,67.5,1.31,4.87,30.8,> 100,–,did not inhibit,–
"Oc1ccc(-c2c(Cl)c(Cl)cc(Cl)c2Cl)cc1Cl [Compound B5, 4′-OH-CB112]",1.17,42.5,1.48,5.35,23.2,86.5,–,did not inhibit,"type of inhibition ([4]; 3-OH-BaP 35 to 150 nM): noncompetitive; Vmax (3-OH-BaP sulfotransferase activity) ([4]; in presence of 0.25 μM B5, two livers): 56.3 ± 6.0 B pmol/min/mg protein; Vmax (3-OH-BaP sulfotransferase activity) ([4]; in presence of 0.5 μM B5, n = 3): 41.2 ± 3.3 C pmol/min/mg protein; Vmax (3-OH-BaP sulfotransferase activity) ([4]; in presence of 1.0 μM B5, n = 3): 33.3 ± 3.2 D pmol/min/mg protein"
"Oc1c(Cl)cc(-c2c(Cl)c(Cl)cc(Cl)c2Cl)cc1Cl [Compound C5, 4′-OH-CB165]",2.58,54.8,2.59,6.96,21.4,> 100,–,did not inhibit,–
"Oc1ccc(-c2ccc(Cl)c(Cl)c2)cc1Cl [Compound B1, 4′-OH-CB35]",0.77,25.2,0.55,0.24,1.02,16.8,2 to 20,–,–
"Oc1c(Cl)cc(-c2cccc(Cl)c2)cc1Cl [Compound C2, 4-OH-CB36]",3.09,> 100,3.05,0.41,1.65,47.5,43,–,–
"Oc1c(Cl)cc(-c2c(Cl)cc(Cl)cc2Cl)cc1Cl [Compound C3, 4′-OH-CB121]",–,–,–,–,–,–,–,did not inhibit,"IC50 (SULT1A1*1; [11]): 8.15 µM; IC50 (SULT1A1*1; [12]): 99.5 µM; IC50 (SULT1A1*2 [1]): 6.52 µM; IC50 (SULT1E1; IC50 SULT1E1, 0.1 μM 3-OH-BaP): 7.98 µM; IC50 (SULT1E1; IC50 SULT1E1, 1.0 μM 3-OH-BaP): 16.7 µM; IC50 (SULT1B1; IC50 SULT1B1, 1.0 μM 3-OH-BaP): > 100 µM"
"Oc1ccc(-c2cc(Cl)c(Cl)c(Cl)c2Cl)cc1Cl [Compound B4, 4′-OH-CB106]",–,–,–,–,–,–,–,did not inhibit,"IC50 (SULT1A1*1; [11]): 1.07 µM; IC50 (SULT1A1*1; [12]): 10.3 µM; IC50 (SULT1A1*2 [1]): 1.06 µM; IC50 (SULT1E1; IC50 SULT1E1, 0.1 μM 3-OH-BaP): 1.18 µM; IC50 (SULT1E1; IC50 SULT1E1, 1.0 μM 3-OH-BaP): 6.97 µM; IC50 (SULT1B1; IC50 SULT1B1, 1.0 μM 3-OH-BaP): 17.4 µM"
